How the values were obtained:
ErbB2 WT = ErbB2 WT (Homo sapiens (Human), UniProt P04626); experiment: ErbB Enzyme Assay (HTRF KinEASE-TK), Assay 2; assay type: biochemical
BCRP = BCRP (Homo sapiens (Human), UniProt Q9UNQ0); experiment: BCRP MDCKII efflux assay (Assay 7); assay type: in vitro ADME; settings: dog; efflux ratio Papp(B-A)/Papp(A-B), BCRP MDCKII cells; read-out: Assay 7 Pe Ratio
Experimental: Assay conditions included with and without the BCRP-specific inhibitor, KO143, at a concentration of 0.3 μM to ascertain the contribution of BCRP to the efflux value of the test compound.
Final organic concentration in the assay was 1%.

EGFR = EGFR (Homo sapiens (Human), UniProt P00533); experiment: ErbB Enzyme Assay (HTRF KinEASE-TK), Assay 3; assay type: biochemical
Chain of EGFR (P00533 25-1210): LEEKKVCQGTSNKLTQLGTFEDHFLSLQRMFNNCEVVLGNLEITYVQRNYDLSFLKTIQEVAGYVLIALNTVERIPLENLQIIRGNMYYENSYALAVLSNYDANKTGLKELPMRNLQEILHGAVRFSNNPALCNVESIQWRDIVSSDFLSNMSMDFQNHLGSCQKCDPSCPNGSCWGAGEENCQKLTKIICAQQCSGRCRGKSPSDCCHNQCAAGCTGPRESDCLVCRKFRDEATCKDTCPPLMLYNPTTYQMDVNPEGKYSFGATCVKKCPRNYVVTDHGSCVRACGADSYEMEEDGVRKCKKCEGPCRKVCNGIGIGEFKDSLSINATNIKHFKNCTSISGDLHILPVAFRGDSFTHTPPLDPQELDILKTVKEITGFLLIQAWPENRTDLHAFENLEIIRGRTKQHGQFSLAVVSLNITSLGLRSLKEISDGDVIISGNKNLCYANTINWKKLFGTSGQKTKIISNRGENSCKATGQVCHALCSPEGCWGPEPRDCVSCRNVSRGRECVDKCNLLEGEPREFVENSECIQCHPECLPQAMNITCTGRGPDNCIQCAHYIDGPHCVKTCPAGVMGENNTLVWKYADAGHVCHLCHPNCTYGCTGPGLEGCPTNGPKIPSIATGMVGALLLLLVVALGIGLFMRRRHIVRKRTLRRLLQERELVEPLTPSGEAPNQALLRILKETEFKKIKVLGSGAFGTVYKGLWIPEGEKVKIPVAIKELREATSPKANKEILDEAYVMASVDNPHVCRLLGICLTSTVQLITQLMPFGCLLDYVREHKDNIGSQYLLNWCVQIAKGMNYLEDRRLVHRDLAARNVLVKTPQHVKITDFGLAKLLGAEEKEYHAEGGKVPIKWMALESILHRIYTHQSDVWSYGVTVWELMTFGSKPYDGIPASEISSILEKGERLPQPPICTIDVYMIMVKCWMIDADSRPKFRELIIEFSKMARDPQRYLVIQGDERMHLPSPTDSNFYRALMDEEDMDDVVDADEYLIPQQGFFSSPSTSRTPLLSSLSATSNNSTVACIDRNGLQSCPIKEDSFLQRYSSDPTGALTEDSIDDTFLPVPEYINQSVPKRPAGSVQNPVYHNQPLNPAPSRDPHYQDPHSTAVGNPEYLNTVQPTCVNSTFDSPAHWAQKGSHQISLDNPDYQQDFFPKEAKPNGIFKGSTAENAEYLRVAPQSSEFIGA

[1] = target: ErbB2 with Exon 20 YVMA insertion (HER2-YVMA) (Homo sapiens (Human), UniProt P04626, INS775YVMA); experiment: Cellular Phosphorylation Assay, Assay 4 (constitutive ErbB2 phosphorylation, NIH 3T3 cells); assay type: cell-based
EGFR wild type (EGFR WT) = EGFR wild type (EGFR WT) (Homo sapiens (Human), UniProt P00533); experiment: Cellular Phosphorylation Assay, Assay 5 (EGF-stimulated EGFR phosphorylation, NIH 3T3 cells); assay type: cell-based
Chain of EGFR wild type (EGFR WT) (P00533 25-1210): as above

[2] = EGF-stimulated EGFR WT phosphorylation
[3] = cellular ErbB2 YVMA phosphorylation
[4] = cellular EGFR WT phosphorylation, EGF-stimulated

Chain of BCRP (Q9UNQ0 whole entry): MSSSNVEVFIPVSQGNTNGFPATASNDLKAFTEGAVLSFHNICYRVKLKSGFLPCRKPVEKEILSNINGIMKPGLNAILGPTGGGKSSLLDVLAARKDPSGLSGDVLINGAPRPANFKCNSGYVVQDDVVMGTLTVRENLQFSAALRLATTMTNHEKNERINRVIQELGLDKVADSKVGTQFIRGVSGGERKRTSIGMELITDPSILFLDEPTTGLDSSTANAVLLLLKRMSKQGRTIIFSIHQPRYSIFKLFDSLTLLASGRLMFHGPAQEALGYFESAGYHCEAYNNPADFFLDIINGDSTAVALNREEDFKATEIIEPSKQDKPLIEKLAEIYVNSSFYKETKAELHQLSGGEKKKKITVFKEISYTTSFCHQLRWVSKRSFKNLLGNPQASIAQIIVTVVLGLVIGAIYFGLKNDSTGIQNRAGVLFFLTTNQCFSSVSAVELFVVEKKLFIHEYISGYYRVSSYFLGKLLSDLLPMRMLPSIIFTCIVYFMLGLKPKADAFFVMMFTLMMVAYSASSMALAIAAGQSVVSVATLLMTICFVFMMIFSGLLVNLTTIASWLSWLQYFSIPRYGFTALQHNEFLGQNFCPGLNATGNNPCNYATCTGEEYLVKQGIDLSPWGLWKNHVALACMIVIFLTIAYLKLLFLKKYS
Chain of ErbB2 WT (P04626 23-1255): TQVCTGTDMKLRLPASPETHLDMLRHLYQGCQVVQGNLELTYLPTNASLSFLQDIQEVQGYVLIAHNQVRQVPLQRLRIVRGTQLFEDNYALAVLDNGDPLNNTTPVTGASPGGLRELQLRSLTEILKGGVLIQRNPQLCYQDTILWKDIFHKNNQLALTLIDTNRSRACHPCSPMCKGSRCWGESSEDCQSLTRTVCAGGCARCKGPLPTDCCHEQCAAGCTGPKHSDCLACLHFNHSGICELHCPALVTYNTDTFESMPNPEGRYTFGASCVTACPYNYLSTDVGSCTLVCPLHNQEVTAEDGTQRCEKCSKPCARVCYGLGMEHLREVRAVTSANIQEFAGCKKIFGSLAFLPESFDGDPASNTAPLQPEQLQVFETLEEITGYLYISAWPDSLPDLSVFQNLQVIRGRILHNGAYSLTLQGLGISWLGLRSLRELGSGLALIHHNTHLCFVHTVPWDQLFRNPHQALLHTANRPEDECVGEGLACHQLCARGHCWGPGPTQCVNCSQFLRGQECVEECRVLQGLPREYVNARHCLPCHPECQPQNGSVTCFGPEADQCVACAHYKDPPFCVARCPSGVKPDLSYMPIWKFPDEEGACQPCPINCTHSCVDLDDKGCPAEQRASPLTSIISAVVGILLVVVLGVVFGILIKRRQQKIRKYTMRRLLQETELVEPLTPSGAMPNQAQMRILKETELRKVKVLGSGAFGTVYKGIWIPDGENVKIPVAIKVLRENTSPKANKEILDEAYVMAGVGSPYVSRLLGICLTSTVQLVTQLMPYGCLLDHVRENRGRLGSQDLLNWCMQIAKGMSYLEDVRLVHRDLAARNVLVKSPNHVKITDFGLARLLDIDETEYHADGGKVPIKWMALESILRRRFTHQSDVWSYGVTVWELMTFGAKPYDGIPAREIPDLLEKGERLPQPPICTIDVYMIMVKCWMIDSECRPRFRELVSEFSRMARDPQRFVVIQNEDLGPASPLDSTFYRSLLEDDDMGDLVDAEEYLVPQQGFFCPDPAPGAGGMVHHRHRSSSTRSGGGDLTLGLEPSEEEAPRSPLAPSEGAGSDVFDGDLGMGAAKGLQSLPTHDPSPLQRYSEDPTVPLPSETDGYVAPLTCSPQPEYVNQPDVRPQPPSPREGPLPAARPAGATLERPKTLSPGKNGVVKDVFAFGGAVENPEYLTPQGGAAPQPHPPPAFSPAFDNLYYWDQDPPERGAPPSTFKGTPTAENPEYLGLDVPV

Structure (SMILES) | IC50 (ErbB2 WT; ErbB2 WT enzyme) [nM] | efflux ratio at 2 h, 1 µM (BCRP) | IC50 (EGFR; EGFR enzyme) [nM] | IC50 ([1]; ErbB2 YVMA phosphorylation) [nM] | IC50 (EGFR wild type (EGFR WT); [2]) [nM] | IC50 (ErbB2 WT; ErbB2 WT enzyme assay) [nM] | IC50 (EGFR; EGFR enzyme assay) [nM] | IC50 [1, 3] [nM] | IC50 (EGFR wild type (EGFR WT); [4]) [nM]
C=CC(=O)N1CC[C@@H](c2ccc3ncnc(Nc4cc(C)c(Oc5ccc6c(c5)ncn6C)cc4F)c3n2)C1 (racemic) [Example 132, rac-(R)-1-(3-(4-((2-fluoro-5-methyl-4-((1-methyl-1H-benzo[d]imidazol-5-yl)oxy)phenyl)amino)pyrido[3,2-d]pyrimidin-6-yl)pyrrolidin-1-yl)prop-2-en-1-one] | 75.9 | 7.9 | ≥ 10000 | 18.8 | ≥ 5000 |  |  |  | 
C=CC(=O)N1CCC(Sc2ccc3ncnc(Nc4ccc(Oc5ccc6c(c5)ncn6C)c(C)c4)c3n2)CC1 [Example 59, 1-(4-((4-((3-methyl-4-((1-methyl-1H-benzo[d]imidazol-5-yl)oxy)phenyl)amino)pyrido[3,2-d]pyrimidin-6-yl)thio)piperidin-1-yl)prop-2-en-1-one] | 25.4 | 10.8 | 534 | 19 | ≥ 5000 |  |  |  | 
C=CC(=O)N1C[C@H]2C[C@@H]1[C@H](c1ccc3ncnc(Nc4ccc(Oc5ccn6ncnc6c5)c(C)c4)c3n1)C2 [Example 405] |  | 13.7 |  |  |  | 19.5 | 1640 | 17.2 | 4550
C=CC(=O)N1CCN(c2ccc3ncnc(Nc4cc(C)c(Oc5cnc6c(c5)ncn6C)cc4F)c3n2)CC12CC2 [Example 354] |  | 13.4 |  |  |  | 31.6 | ≥ 10000 | 8.8 | ≥ 5000
C=CC(=O)N1CCN(c2ccc3ncnc(Nc4ccc(Oc5ccn6ncnc6c5)c(C)c4)c3n2)CC1(C)C [Example 77, 1-(4-(4-((4-([1,2,4]triazolo[1,5-a]pyridin-7-yloxy)-3-methylphenyl)amino)pyrido[3,2-d]pyrimidin-6-yl)-2,2-dimethylpiperazin-1-yl)prop-2-en-1-one] | 9 | 11.6 | 2550 | 9.3 | 874 |  |  |  | 
C=CC(=O)N1C2CC1CN(c1ccc3ncnc(Nc4cc(C)c(Oc5ccc6c(c5)ncn6C)cc4F)c3n1)C2 [Example 48, 1-(3-(4-((2-fluoro-5-methyl-4-((1-methyl-1H-benzo[d]imidazol-5-yl)oxy)phenyl)amino)pyrido[3,2-d]pyrimidin-6-yl)-3,6-diazabicyclo[3.1.1]heptan-6-yl)prop-2-en-1-one] | 264 | 10.2 | ≥ 10000 | 16.6 | ≥ 5000 |  |  |  | 
C=CC(=O)N1CC2CC(C1)N2c1ccc2ncnc(Nc3ccc(Oc4ccc5c(c4)ncn5C)c(C)c3F)c2n1 [Example 335] |  | 3 |  |  |  | 164 | ≥ 10000 | 15.4 | ≥ 5000
C=CC(=O)N1CCN(c2ccc3ncnc(Nc4ccc(Oc5cc(F)c6c(c5)ncn6C)c(C)c4)c3n2)C[C@H]1CC [Example 282] |  | 7.6 |  |  |  | 12.9 | 2350 | 14.4 | 1230
C=CC(=O)N1CCCN(c2ccc3ncnc(Nc4ccc(Oc5cnc6c(c5)ncn6C)c(C)c4)c3n2)CC1 [Example 114, 1-(4-(4-((3-methyl-4-((3-methyl-3H-imidazo[4,5-b]pyridin-6-yl)oxy)phenyl)amino)pyrido[3,2-d]pyrimidin-6-yl)-1,4-diazepan-1-yl)prop-2-en-1-one] | 255 | 23.5 | ≥ 10000 | 29.9 | ≥ 5000 |  |  |  | 
C=CC(=O)N1CCN(c2ccc3ncnc(Nc4ccc(Oc5cc(F)c6c(c5)ncn6C)c(C)c4)c3n2)CC1 [Example 276] |  | 25.2 |  |  |  | 10 | 350 | 6.7 | 302
C=CC(=O)N1C[C@H]2CC[C@@H]1CN2c1ccc2ncnc(Nc3ccc(Oc4ccn5ncnc5c4)c(Cl)c3F)c2n1 [Example 328] |  | 7.7 |  |  |  | 50 | 692 | 15.7 | 1500
C=CC(=O)N1C[C@H]2C[C@@H]1[C@H](c1ccc3ncnc(Nc4cc(C)c(Oc5ccc6c(c5)ncn6C)cc4F)c3n1)C2 [Example 374] |  | 3.4 |  |  |  | 16.5 | 2660 | 20.5 | ≥ 5000
C=CC(=O)N1[C@H](C)CN(c2ccc3ncnc(Nc4ccc(Oc5ccn6ncnc6c5)c(Cl)c4F)c3n2)C[C@@H]1C [Example 288] |  | 4.4 |  |  |  | 11 | 1340 | 10.5 | 778
C=CC(=O)N1CCN(c2ccc3ncnc(Nc4ccc(Oc5cnc6c(c5)ncn6C)c(C)c4F)c3n2)C[C@@H]1C [Example 437] |  | 9.3 |  |  |  | 148 | 9730 | 18.6 | 4910
C=CC(=O)N1C2CC1CN(c1ccc3ncnc(Nc4ccc(Oc5ccc6c(c5)ncn6C)c(Cl)c4F)c3n1)C2 [Example 325] |  | 10.3 |  |  |  | 21.3 | 255 | 11.6 | 556
C=CC(=O)N1C[C@H]2C[C@@H]1CN2c1ccc2ncnc(Nc3ccc(Oc4ccn5ncnc5c4)c(C)c3F)c2n1 [Example 94, 1-((1R,4R)-5-(4-((4-([1,2,4]triazolo[1,5-a]pyridin-7-yloxy)-2-fluoro-3-methylphenyl)amino)pyrido[3,2-d]pyrimidin-6-yl)-2,5-diazabicyclo[2.2.1]heptan-2-yl)prop-2-en-1-one] | 170 | 6.8 | ≥ 10000 | 30.6 | ≥ 5000 |  |  |  | 
C=CC(=O)N1CCC(Oc2nc3c(Nc4ccc(Oc5ccc6cn(C)nc6c5)c(C)c4)ncnc3cc2OC)CC1 [Example 157, 1-(4-((7-methoxy-4-((3-methyl-4-((2-methyl-2H-indazol-6-yl)oxy)phenyl)amino)pyrido[3,2-d]pyrimidin-6-yl)oxy)piperidin-1-yl)prop-2-en-1-one] | 209 | 6.8 | 2270 | 21.3 | 1740 |  |  |  | 
C#CC1CN(c2ccc3ncnc(Nc4ccc(Oc5ccn6ncnc6c5)c(C)c4F)c3n2)CCN1C(=O)C=C (centres unmarked) [Example 322] |  | 11.3 |  |  |  | 8.1 | 489 | 15.3 | 431
C=CC(=O)N1CCN(c2ccc3ncnc(Nc4cc(Cl)c(Oc5ccn6ncnc6c5)cc4F)c3n2)CC1 [Example 81, 1-(4-(4-((4-([1,2,4]triazolo[1,5-a]pyridin-7-yloxy)-5-chloro-2-fluorophenyl)amino)pyrido[3,2-d]pyrimidin-6-yl)piperazin-1-yl)prop-2-en-1-one] | 33.2 | 17.4 | 9430 | 9.5 | ≥ 5000 |  |  |  | 
C=CC(=O)N1C[C@H]2C[C@@H]1[C@H](c1ccc3ncnc(Nc4ccc(Oc5cnc6c(c5)ncn6C)c(C)c4)c3n1)C2 [Example 407] |  | 16 |  |  |  | 38 | 1510 | 20.4 | ≥ 5000
C=CC(=O)N1CCC(c2ccc3ncnc(Nc4ccc(Oc5ccc6c(c5)ncn6C)c(C)c4F)c3n2)CC1 [Example 146, 1-(4-(4-((2-fluoro-3-methyl-4-((1-methyl-1H-benzo[d]imidazol-5-yl)oxy)phenyl)amino)pyrido[3,2-d]pyrimidin-6-yl)piperidin-1-yl)prop-2-en-1-one] | 15.8 | 4.3 | 2580 | 36.7 | ≥ 5000 |  |  |  | 
C=CC(=O)N1CCN(c2ccc3ncnc(Nc4cc(Cl)c(Oc5cnc6c(c5)ncn6C)cc4F)c3n2)CC1(C)C [Example 452] |  | 6.2 |  |  |  | 452 | 1060 | 12.8 | ≥ 5000
